# From patent US7384789B2, “Divalent metal ion sensors and binders” (The University of North Dakota, priority 2006, dated 2008)
# Experiments:
# [1] = Cai et al., Inorg. Chim. Acta 1997; cited from earlier work
# [2] = Fluorescence emission profile with stoichiometric divalent metal ion: Zn^2+; details: for effect of Zn^2+ on fluorescence emission intensity: stoichiometric ion, λex/λem: compound 1 300/390 nm, compound 3 315/357 nm, compound 4 365/520 nm
# Protocol: (§1) Commercially available reagents, obtained from Acros Organics and Aldrich were used as received. All solvents were distilled before use. Reactions were monitored by thin-layer chromatography (TLC) and visualization was accomplished with a UV lamp. Reaction mixtures were purified by column chromatography, performed with the indicated solvents using silica gel (230-400 mesh). The Rf values were calculated based on the eluents used for purification. The yields reported refer to chromatographically and spectroscopically pure compounds. The purity of the compounds were ascertained by GC/MS analysis (HP 5890 Series II GC fitted with HP 5971 Series Mass Selective Detector). ^1H and proton decoupled ^13C NMR spectra were recorded on a Bruker AMX 500 MHz spectrometer at ambient temperature. The fluorescence spectra were obtained using Jobin Yvon Horiba Fluorolog-3 spectrofluorometer. The HEPES buffer was prepared from commercially available 1M solution of the free acid and the pH was adjusted to 7.0 by the addition of KOH pellets in the presence of 0.135 M NaCl. The fluorescence measurements were carried out on 3 mL samples of the sensor and 3 μL aliquots of the 200 mM metal ion solution in HEPES were added to the sample to make up the desired metal concentrations.
# (§2) The influence of divalent metal ions on the fluorescence spectral profile of compound 1 is shown in FIG. 1, where the fluorescence emission spectra of 200 μM compound 1 (λex=300 nm) with stoichiometric concentrations of selected divalent metal ions. Compound 1 has a weak fluorescence emission peak around 386-390 nm, which is differently affected by different metal ions. […] In contrast, the fluorescence intensity of compound 1 decreases in the presence of Cu^2+, Ni^2+, and Co^2+.
# The influence of divalent metal ions on the fluorescence spectral profile of compound 3 is shown in FIG. 3, where the fluorescence emission spectra of 200 μM […] (λex=315 nm) with stoichiometric concentrations of selected divalent metal ions. Compound 3 has a weak fluorescence emission peak around 355-360 nm, which is differently affected by different metal ions. […] In contrast, as expected, the fluorescence intensity of compound 3 decreases in the presence of Cu^2+, Ni^2+, and Co^2+. […] Titration of compound 3 with Zn^2+ indicates a Kd value of 2 mM (approx.).
# The influence of divalent metal ions on the fluorescence spectral profile of compound is shown in FIG. 4, where the fluorescence emission spectra of 200 μM […] (λex=365 nm) with stoichiometric concentrations of selected divalent metal ions. Compound 4 has a UV absorption maximum at 425 nm. […] Excitation at shorter wavelengths e.g. at 365 nm leads to a weak emission peak around 520 nm, which is differently affected by different metal ions.
# [3] = Fluorescence emission profile with stoichiometric divalent metal ion: Mg^2+; details: 200 μM compound, λex/λem: compound 1 300/390 nm, compound 3 315/357 nm, compound 4 365/520 nm
# Protocol: as §1, with “The HEPES buffer was prepared from commercially available 1M solution of the free acid and the pH was adjusted to 7.0 by the addition of KOH pellets in the presence of 0.135 M NaCl.” left out
# as §2
# (§3) The influence of divalent metal ions on the fluorescence spectral profile of compound 3 is shown in FIG. 3, where the fluorescence emission spectra of 200 μM […] (λex=315 nm) with stoichiometric concentrations of selected divalent metal ions. Compound 3 has a weak fluorescence emission peak around 355-360 nm, which is differently affected by different metal ions. […] In contrast, as expected, the fluorescence intensity of compound 3 decreases in the presence of Cu^2+, Ni^2+, and Co^2+. […]
# [4] = Fluorescence emission profile with stoichiometric divalent metal ion: Ca^2+; details: 200 μM compound, λex/λem: compound 1 300/390 nm, compound 3 315/357 nm, compound 4 365/520 nm
# Protocol: as §1, with “The HEPES buffer was prepared from commercially available 1M solution of the free acid and the pH was adjusted to 7.0 by the addition of KOH pellets in the presence of 0.135 M NaCl.” left out
# as §2, §3
# [5] = Fluorescence emission profile with stoichiometric divalent metal ion: Cu^2+; details: 200 μM compound, λex/λem: compound 1 300/390 nm, compound 3 315/357 nm, compound 4 365/520 nm
# Protocol: as §1, with “The HEPES buffer was prepared from commercially available 1M solution of the free acid and the pH was adjusted to 7.0 by the addition of KOH pellets in the presence of 0.135 M NaCl.” left out
# as §2, §3
# [6] = Fluorescence emission profile with stoichiometric divalent metal ion: Ni^2+; details: 200 μM compound, λex/λem: compound 1 300/390 nm, compound 3 315/357 nm, compound 4 365/520 nm
# Protocol: as §1, with “The HEPES buffer was prepared from commercially available 1M solution of the free acid and the pH was adjusted to 7.0 by the addition of KOH pellets in the presence of 0.135 M NaCl.” left out
# as §2, §3
# [7] = Fluorescence emission profile with stoichiometric divalent metal ion: Co^2+; details: 200 μM compound, λex/λem: compound 1 300/390 nm, compound 3 315/357 nm, compound 4 365/520 nm
# Protocol: as §1, with “The HEPES buffer was prepared from commercially available 1M solution of the free acid and the pH was adjusted to 7.0 by the addition of KOH pellets in the presence of 0.135 M NaCl.” left out
# as §2, §3
# Solubility = type: physicochemical; details: for solubility: solvent not given
# [8] = Spectrofluorometric titration of compound with Zn^2+ (ZnCl2); type: binding; details: approx.
# Protocol: as §1, with “The HEPES buffer was prepared from commercially available 1M solution of the free acid and the pH was adjusted to 7.0 by the addition of KOH pellets in the presence of 0.135 M NaCl.” left out
# To determine the magnitude of Zn^2+ induced fluorescence spectral changes of compound 1 as well as its binding affinity, a detailed spectrofluorometric titration study was performed.
# [9] = Fluorescence emission profile with stoichiometric divalent metal ion: Cd^2+; details: 200 μM compound, λex/λem: compound 3 315/357 nm, compound 4 365/520 nm
# Protocol: as §1, with “The HEPES buffer was prepared from commercially available 1M solution of the free acid and the pH was adjusted to 7.0 by the addition of KOH pellets in the presence of 0.135 M NaCl.” left out
# (§4) The influence of divalent metal ions on the fluorescence spectral profile of compound 3 is shown in FIG. 3, where the fluorescence emission spectra of 200 μM compound 1 (λex=315 nm) with stoichiometric concentrations of selected divalent metal ions. […]
# [10] = Fluorescence emission profile with stoichiometric divalent metal ion: Hg^2+; details: 200 μM compound, λex/λem: compound 3 315/357 nm, compound 4 365/520 nm
# Protocol: as §1, with “The HEPES buffer was prepared from commercially available 1M solution of the free acid and the pH was adjusted to 7.0 by the addition of KOH pellets in the presence of 0.135 M NaCl.” left out
# as §4
Molecule,divalent metal binding [1],effect of Zn^2+ on fluorescence emission intensity ([2]; 200 μM compound),Zn^2+-induced fluorescence enhancement in the presence of excess Ca^2+ ([2]; 100 fold excess of Ca^2+),"increase of fluorescence emission intensity in the presence of Zn^2+ ([2]; stoichiometric concentration of Zn^2+, 200 μM compound, λex=300 nm)",effect of Mg^2+ on fluorescence emission intensity [3],effect of Ca^2+ on fluorescence emission intensity [4],effect of Cu^2+ on fluorescence emission intensity [5],effect of Ni^2+ on fluorescence emission intensity [6],effect of Co^2+ on fluorescence emission intensity [7],solubility in the aqueous medium (Solubility; aqueous medium),solubility (Solubility),Kd [8] [µM],effect of Cd^2+ on fluorescence emission intensity [9],effect of Hg^2+ on fluorescence emission intensity [10],solubility in water and methanol (Solubility; water and methanol)
"Cc1cc(N(CC(=O)O)CC(=O)O)c(O)c(N(CC(=O)O)CC(=O)O)c1 [N,N,N′,N′-tetrakis(carboxylatemethyl)-2,6-diaminocresol]",binding to only Co^2+ or Cu^2+,,,,,,,,,,,,,,
"COc1c(N(CC(=O)[O-])CC(=O)[O-])cc(C)cc1N(CC(=O)[O-])CC(=O)[O-].[K+].[K+].[K+].[K+] [compound 1, Potassium-2,6-diamino-(N,N,N′,N′-tetraacetate)-4-methylanisole]",,most dramatic effect,maintained,about 10 fold,barely affected,only slightly increased,decreases,decreases,decreases,high solubility,readily soluble,,,,
"O=C([O-])CN(CC(=O)[O-])c1cccc(N(CC(=O)[O-])CC(=O)[O-])c1.[Na+].[Na+].[Na+].[Na+] [compound 3, Sodium 1,3-diamino-(N,N,N′,N′-tetraacetate)benzene]",,enhanced significantly,,,slightly enhanced,slightly enhanced,decreases,decreases,decreases,,,~2000,slightly enhanced,slightly enhanced,
"Sodium 2,6-diamino-(N,N,N′,N′-tetraacetate)-3-nitroanisole [compound 4]",,substantially enhanced,,,slightly quenched,slightly quenched,significantly quenched,significantly quenched,significantly quenched,,,,substantially enhanced,no discernable effect,
"Zinc-2,6-diamino-(N,N,N′,N′-tetraacetate)-4-methylanisole [compound 1-Zn complex]",,,,,,,,,,,low solubility,,,,low solubility
